Results as given in patent US20250352654A1, “PHARMACEUTICAL AGENT CONJUGATES TO MODULATE MACROPHAGE AND INFLAMMATORY FUNCTIONS AND USES THEREOF” (REGENTS OF THE UNIVERSITY OF MINNESOTA, priority 2022, published 2025).
Bridge positions count the residues as written; N and C are the ends. Peptide text beside a SMILES is read from it. * marks the point of attachment. 5FAM = O=C1OC2(c3ccc(O)cc3Oc3cc(O)ccc32)c2ccc(C(=O)*)cc21; Ahx = NCCCCCC(=O)O

Experiments:
[1] = tested on: inflamed synovium of the arthritic joints; experiment: FAM-CRV homing in CIA mice (IHC/IF); assay type: in vivo, mouse; conditions: i.v., 1 h, IHC
Protocol: FIGS. 7B-7D illustrates In vivo CRV peptide distribution in arthritic mouse models. (B) Scheme of synthesis of 64Cu-DOTA-CRV. (C) Representative immunohistochemistry (IHC) images of peptide accumulation in the tissues of collagen-induced-arthritis (CIA) mice with anti-FITC antibody for FAM-labeled CRV and FAM-GGS, upon intravenous injection for 1 h, respectively. Scale bars: 100 μm. (D) Representative IHC images of CRV-peptide and a control peptide (GGS) accumulation in the ankle joints of K/B×N serum-transfer arthritic mice at 1 h post intravenous injection as detected by FAM signals with anti-FITC antibody. Scale bar: 200 μm for 10× magnification; 100 μm for 20× magnification. All the animal experiments were performed in 3 mice per group. DOTA, 1,4,7,10-tetraazacyclododocane tetraacetic acid; FAM, carboxyfluorescein; FITC, fluorescein isothiocyanate.
FIG. 8A-8G CRV targets the inflamed synovium of the arthritic joints. (A) Scheme of the establishment of collagen-induced arthritis (CIA) model. (B) In vivo PET/CT images of 64Cu-DOTA and 64Cu-DOTA-CRV accumulation at the joints of mice with CIA. […] (C) Quantification of 64Cu-DOTA or 64Cu-DOTA-CRV uptake at the knees and ankles by analyzing PET data of the region of interest (ROI). […] (E) Representative IHC images of CRV-peptide accumulation in the knee joint as detected by FAM signals with anti-FITC antibody. […]

[2] = DEX-PEG conjugations with different PEG lengths in obese mice with ALI; assay type: in vivo, mouse; conditions: 0.1 mg/kg DEX equivalent i.v. every other day for 3 weeks
Protocol: (A) Body weight of mice in each treatment group. (B) Blood glucose of mice during the ITT experiment. Mice were fasted for 6 hours, and […] of insulin was administered via intraperitoneal (i.p.) injection. The blood glucose levels were measured using Clarity BG1000 Blood Glucose Meter Strips at 0, 15, 30, 60, 90, and 120 minutes after the injection. (C) Thymus weight of mice in each group at the end of the study. Triglycerides (D), total cholesterol (E) and non-HDL cholesterol (F) in mice plasma were quantified by LiquiColor® Test (Enzymatic) Kit. Error bars indicate S.E.M., n=4. *p<0.05 and **p<0.01 (Student's t-test).
Liver was collected, fixed and sectioned. H&E staining was carried out according to the standard protocol. Scale bar, […] for all images.
Male C57 mice were subjected to high-fat diet feeding for 8 weeks to induce obesity. An acute lung injury (ALI) model was established in the obesity mice by administering 30 μg of LPS intratracheally per mouse.
In addition, lean mice and obese mice without ALI were included in the study as controls and received no treatment. Body weight of the mice was monitored every other day during the study. One day prior to sacrificing the mice, an insulin tolerance test (ITT) was conducted. Blood and major organs were collected at the end of the study, and plasma triglycerides, total and non-HDL cholesterol were quantified. The organs were weighed and sectioned for H&E staining.

[3] = Short-term side effects of DEX conjugates in CIA mice; assay type: in vivo, mouse; conditions: 0.01 mg kg-1 DEX equivalent i.v. every two days for one week
Protocol: (§1) (A) Quantification of immunofluorescent signals (Top) and representative immunofluorescent images (bottom) of TUNEL-positive cells showing apoptotic cells in tissues of mice receiving short-term treatments. (B-C) Plasma levels of liver enzymes alanine transaminase (ALT) and (F) aspartate transaminase (AST). […] Thymus and spleen weight in mice receiving long-term treatments.
(§2) The TUNEL staining was performed using an In Situ Cell Death Detection Kit (Roche Diagnostics GmbH, Mannheim, Germany). The paraffin sections were stained with TUNEL reaction mixture for 1 h at 37° C. followed by Hoechst staining for nucleus. The images were captured by using fluorescence microscopy EVOS M5000 and the fluorescence intensity of TUNEL positive cells was evaluated by ImageJ software for semi-quantification.
(§3) The aminotransferase quantification was performed to determine toxicity effect of different formulations of PSL on the liver. Blood samples were collected by cardiac puncture after the treatment. The levels of aspartate aminotransferase (AST) and alanine aminotransferase (ALT) in plasma were measured using assay kits from Stanbio (Boerne, TX).
(§4) Additionally, we examined the commonly seen systemic side effects including the reduced thymus and spleen weight due to increased apoptosis after a short-term low dose and a long-term glucocorticoid usage.

[4] = In vivo pharmacokinetics of DEX conjugates; conditions: male, DBA/1J, mouse, plasma, iv, 1 mg kg^-1 (DEX equivalent); healthy mice; mean ± SD (n = 3)
Protocol: All the animal experiments were performed on 3 mice per group. The data are presented as the mean±standard deviation (SD). […] All the animal experiments were performed on 3 mice per group. The data are presented as the mean±standard deviation (SD). Statistical significance was calculated using Student's t test. *P<0.05, **P<0.01 between groups. […] ND, not determined.
HPLC-MS/MS analysis was performed using the chromatographic system consisting of UltiMate 3000 RSLCnano System (Thermo Fisher Scientific) and a ZORBAX C18 column (5 μm, 150 mm 0.5 mm, Agilent, Santa Clara, CA). The mobile phase was a mixture of H2O/acetonitrile with a gradient elution (from 90:10 to 10:90 and return to 90:10, v/v) at a flow rate of 15 μl/min. The eluent was introduced directly into the electrospray source of a tandem quadrupole mass spectrometer (TSQ VANTAGE, Thermo Fisher Scientific) that was operated in the positive mode. The spray voltage was set at 3000 V. The compounds were analyzed by multiple reaction monitoring (MRM) of the transitions of m/z (ESI+) 361.24→147.06 for PSL.
Healthy DBA/1J male mice at age of 8-9 weeks were deprived of food overnight with free access to water. […] Approximately 20 IL of blood was collected via facial vein at 5, 15, 30, 60 min and, 2, 6, 12, 24, and 48 h, and plasma were obtained by centrifugation at 500×g for 10 min. […]

[5] = Long-term toxicity of DEX conjugates in healthy mice; assay type: in vivo, mouse; conditions: 2 mg kg-1 DEX equivalent, daily i.v. for 2 weeks
Protocol: as §1, §2, §3, §4

## CC(C)C[C@@H]1NC(=O)[C@H](C(C)C)NC(=O)[C@H](CCCNC(=N)N)NC(=O)[C@@H](NC(=O)CCCCCNC(=O)c2ccc3c(c2)C(=O)OC32c3ccc(O)cc3Oc3cc(O)ccc32)CSSC[C@@H](C(=O)O)NC(=O)[C@H](CO)NC(=O)CNC(=O)[C@H](CO)NC(=O)[C@H](CCCNC(=N)N)NC1=O [CRV] ({5FAM-Ahx}-CRVLRSGSC-OH; disulfide 1-9)
[1]
  peptide accumulation in other organs: some accumulation of CRV in the liver and kidney, while no or much less in other organs

## C[C@@H]1C[C@H]2[C@@H]3CCC4=CC(=O)C=C[C@]4(C)[C@@]3(F)[C@@H](O)C[C@]2(C)[C@@]1(O)C(=O)CO [DEX, dexamethasone]
[2]
  Thymus weight: reduces thymus weight
  body weights or blood glucose: no change
  triglycerides in the plasma: elevates the blood triglyceride
[3]
  apoptosis in tissues (TUNEL), short-term: increases the level of apoptosis mainly in the thymus
[4]
  AUC(0-t): 23.2 ± 5.14 ng·h/mL
[5]
  apoptosis in thymus and spleen (TUNEL), long-term: increased apoptosis in thymus and spleen
  thymus and spleen weight, long-term: most significant weight loss of thymus and spleen
